# Test results as given in patent US20170087106A1, “Method for supporting gut health” (priority 2015, published 2017).
# How the values were obtained:
# Assay type in all cases: in vivo
# [1] = test system: TNBS experimental rat colitis; assay: TNBS rat colitis: colonic macroscopic damage score and weight/length ratio; conditions: for Damage Score (0-10) / Weight/length: TNBS rat colitis, oral daily 7 days, mean ± SEM; for Weight/length: colon
# Description: (§1) Female Wistar rats (180-200 g) were randomly assigned to nine groups (n=10). Three groups received treatment with CaPyr (20, 40 and 100 mg/kg); other three received treatment with ethyl pyruvate (20, 40 and 100 mg/kg); and the remaining was treated with sulphasalazine (30 mg/kg). All compounds were dissolved in 1 ml of carboxymethylcellulose (0.2%) in water solution, and administered daily by oral gavage. An untreated TNBS control group and a non-colitic group were included for reference, which received the vehicle used to administer the test compounds. Colonic inflammation was induced in control and treated groups as generally described (see Galvez et al. 2014). Briefly, rats were fasted overnight, anesthetized with halothane and given TNBS dissolved in 0.25 ml of 50% ethanol (v/v) by means of a Teflon cannula inserted 8 cm through the anus. During and after TNBS administration, the rats were kept in a head-down position until they recovered from anaesthesia, and then returned to their cages. Rats from the non-colitic group were administered intracolonically 0.25 ml of phosphate buffered saline instead of TNBS. The treatments were given from the day of the colitis induction until the sacrifice of the rats with an overdose of halothane, seven days later. Animal body weights, occurrence of diarrhoea, and water and food intake were recorded daily throughout all the experiments. Once the animals were sacrificed, the colon was removed aseptically and placed on an ice-cold plate, longitudinally opened and cleaned from their luminal contents with cold saline. Afterwards, it was weighed and its length measured under a constant load (2 g). Each colon was scored for macroscopically visible damage on a 0-10 scale by two observers unaware of the experiment, according to the criteria described before (see Galvez et al. 2014). Colon samples (0.5 cm^2) containing all the layers were taken from a region of the inflamed colon corresponding to the adjacent segment to the gross macroscopic damage and were fixed in 4% buffered formaldehyde for the histological studies. Equivalent colonic segments were also obtained from the non-colitic group. The colon was subsequently minced, aliquoted and kept frozen at −80° C. until biochemical determinations and RNA extraction was performed.
# myeloperoxidase (MPO) = assay: TNBS rat colitis: colonic myeloperoxidase (MPO) activity; conditions: colonic tissue, oral daily 7 days, mean ± SEM
# Description: as §1
# (§2) Myeloperoxidase (MPO) activity was measured according to the technique described previously (Krawiszet al., 1984); the results were expressed as MPO units per gram of wet tissue; one unit of MPO activity was defined as that degrading 1 μmol hydrogen peroxide/min at 25° C. Total glutathione (GSH) content was quantified with the recycling assay described by Anderson (1985), and the results were expressed as nmol/g wet tissue. In order to evaluate tissue IL-1β levels, the colonic samples were homogenized in phosphate buffered saline supplemented with 0.1% sodium dodecyl sulfate (SDS), 0.1% sodium deoxycholate, 1% Triton X-100 and protease and phosphatase inhibitors (aprotinin, leupeptin and phenylmethylsulfonyl fluoride). The cytokine was quantified by enzyme-linked immunoabsorbent assay (R&D Systems Inc., Minneapolis, Minn., USA) and the results were expressed as pg/g wet tissue.
# glutathione (GSH) = assay: TNBS rat colitis: colonic total glutathione (GSH) content; conditions: colonic tissue, oral daily 7 days, mean ± SEM
# Description: as §1, §2
# [2] = test system: TNBS experimental rat colitis; assay: TNBS rat colitis: microscopic (histological) damage score; conditions: oral daily 7 days, mean ± SEM
# Description: as §1
# Cross-sections were selected and embedded in paraffin. Full-thickness sections of 5 μm were obtained at different levels and stained with haematoxylin and eosin. The histological damage was evaluated by a pathologist observer, who was blinded to the experimental groups, according to the criteria previously described by Galvez.
# IL-1β [3] = assay: TNBS rat colitis: colonic IL-1β by ELISA; conditions: colonic tissue, oral daily 7 days, mean ± SEM
# Description: as §1, §2
# IL-1β [4] = assay: TNBS rat colitis: colonic IL-1β mRNA by real-time PCR; conditions: colon, oral daily 7 days, mean ± SEM
# Description: as §1
# (§3) Analysis of gene expression in colonic samples by RT-qPCR Total RNA from colonic samples was isolated using Trizol® (Thermo Fisher Scientific Inc., Waltham, Mass. USA) following the manufacturer's protocol. All RNA samples were quantified with the Thermo Scientific NanoDrop™ 2000 Spectrophotometer (Thermo Fisher Scientific Inc., Waltham, Mass. USA) and […] of RNA were reverse transcribed using oligo(dT) primers (Promega, Southampton, UK).
# (§4) Real time quantitative PCR amplification and detection was performed on optical-grade 48 well plates in an Eco™ Real-Time PCR System (Illumina, CA, USA) with 20 ng of cDNA, the KAPA SYBR® FAST qPCR Master Mix (Illumina, CA, USA) and specific primers at their annealing temperature (Ta). To normalize mRNA expression, the expression of the housekeeping gene, glyceraldehyde-3-phosphate dehydrogenase (GAPDH) was measured. The mRNA relative quantitation was calculated using the ΔΔCt method.
# IL-6 = assay: TNBS rat colitis: colonic IL-6 mRNA by real-time PCR; conditions: colon, oral daily 7 days, mean ± SEM
# Description: as §1, §3, §4
# IL-12 = assay: TNBS rat colitis: colonic IL-12 mRNA by real-time PCR; conditions: colon, oral daily 7 days, mean ± SEM
# Description: as §1, §3, §4
# IL-17 = assay: TNBS rat colitis: colonic IL-17 mRNA by real-time PCR; conditions: colon, oral daily 7 days, mean ± SEM
# Description: as §1, §3, §4
# IL-23 = assay: TNBS rat colitis: colonic IL-23 mRNA by real-time PCR; conditions: colon, oral daily 7 days, mean ± SEM
# Description: as §1, §3, §4
# iNOS = assay: TNBS rat colitis: colonic iNOS mRNA by real-time PCR; conditions: colon, oral daily 7 days, mean ± SEM
# Description: as §1, §3, §4
# CINC-1 = assay: TNBS rat colitis: colonic CINC-1 mRNA by real-time PCR; conditions: colon, oral daily 7 days, mean ± SEM
# Description: as §1, §3, §4
# MCP-1 = assay: TNBS rat colitis: colonic MCP-1 mRNA by real-time PCR; conditions: colon, oral daily 7 days, mean ± SEM
# Description: as §1, §3, §4
# ICAM-1 = assay: TNBS rat colitis: colonic ICAM-1 mRNA by real-time PCR; conditions: colon, oral daily 7 days, mean ± SEM
# Description: as §1, §3, §4
# MUC-2 = assay: TNBS rat colitis: colonic MUC-2 mRNA by real-time PCR; conditions: colon, oral daily 7 days, mean ± SEM
# Description: as §1, §3, §4
# TFF-3 = assay: TNBS rat colitis: colonic TFF-3 mRNA by real-time PCR; conditions: colon, oral daily 7 days, mean ± SEM
# Description: as §1, §3, §4
molecule,measurement,setting,value
"O=C(O)c1cc(/N=N/c2ccc(S(=O)(=O)Nc3ccccn3)cc2)ccc1O [SAZ, sulphasalazine]",Damage Score (0-10),[1]; 30 mg/kg,6.7 ± 0.4
same,Weight/length,[1]; 30 mg/kg,180.4 ± 16.9 mg/cm
same,MPO,myeloperoxidase (MPO); 30 mg/kg,82.8 ± 8.2 mU/g tissue
same,GSH,glutathione (GSH); 30 mg/kg,900 ± 118 nmol/g tissue
same,Microscopic Damage Score (0-59),[2]; 30 mg/kg,30 ± 5
same,IL-1β (ELISA),IL-1β [3]; 30 mg/kg,840.0 ± 120.0 ng/g tissue
same,IL-1β mRNA expression,IL-1β [4]; 30 mg/kg,9.70 ± 0.90 fold increase
same,IL-6 mRNA expression,IL-6; 30 mg/kg,4.21 ± 0.80 fold increase
same,IL-12 mRNA expression,IL-12; 30 mg/kg,1.59 ± 0.24 fold increase
same,IL-17 mRNA expression,IL-17; 30 mg/kg,2.22 ± 0.54 fold increase
same,IL-23 mRNA expression,IL-23; 30 mg/kg,1.26 ± 0.18 fold increase
same,iNOS mRNA expression,iNOS; 30 mg/kg,16.47 ± 2.75 fold increase
same,CINC-1 mRNA expression,CINC-1; 30 mg/kg,4.89 ± 0.82 fold increase
same,MCP-1 mRNA expression,MCP-1; 30 mg/kg,2.62 ± 0.41 fold increase
same,ICAM-1 mRNA expression,ICAM-1; 30 mg/kg,2.90 ± 0.88 fold increase
same,MUC-2 mRNA expression,MUC-2; 30 mg/kg,0.53 ± 0.14 fold increase
same,TFF-3 mRNA expression,TFF-3; 30 mg/kg,0.91 ± 0.12 fold increase
calcium pyruvate [CaPyr],Damage Score (0-10),[1]; 20 mg/kg,7.1 ± 0.4
same,Damage Score (0-10),[1]; 40 mg/kg,5.7 ± 0.4
same,Damage Score (0-10),[1]; 100 mg/kg,6.6 ± 0.6
same,Weight/length,[1]; 20 mg/kg,186.0 ± 22.8 mg/cm
same,Weight/length,[1]; 40 mg/kg,184.6 ± 25.1 mg/cm
same,Weight/length,[1]; 100 mg/kg,198.9 ± 15.0 mg/cm
same,effect in TNBS-induced colitis (in words),"[1]; rats, 20, 40 and 100 mg/kg body weight, 7 days oral treatment",intestinal anti-inflammatory effects
same,efficacy in TNBS colitis compared with the other treatments (in words),"[1]; rats, 7 days oral treatment",more effective than ethyl pyruvate and even better than the therapeutic drug Sulphasalazine
same,MPO,myeloperoxidase (MPO); 20 mg/kg,48.2 ± 7.2 mU/g tissue
same,MPO,myeloperoxidase (MPO); 40 mg/kg,48.8 ± 8.2 mU/g tissue
same,MPO,myeloperoxidase (MPO); 100 mg/kg,57.7 ± 11.5 mU/g tissue
same,GSH,glutathione (GSH); 20 mg/kg,389 ± 55 nmol/g tissue
same,GSH,glutathione (GSH); 40 mg/kg,675 ± 67 nmol/g tissue
same,GSH,glutathione (GSH); 100 mg/kg,768 ± 100 nmol/g tissue
same,Microscopic Damage Score (0-59),[2]; 20 mg/kg,27 ± 2
same,Microscopic Damage Score (0-59),[2]; 40 mg/kg,18 ± 5
same,Microscopic Damage Score (0-59),[2]; 100 mg/kg,13 ± 2
same,IL-1β (ELISA),IL-1β [3]; 20 mg/kg,1095.0 ± 165.0 ng/g tissue
same,IL-1β (ELISA),IL-1β [3]; 40 mg/kg,765.0 ± 60.0 ng/g tissue
same,IL-1β (ELISA),IL-1β [3]; 100 mg/kg,810.1 ± 120.0 ng/g tissue
same,IL-1β mRNA expression,IL-1β [4]; 20 mg/kg,3.90 ± 0.61 fold increase
same,IL-1β mRNA expression,IL-1β [4]; 40 mg/kg,2.40 ± 0.61 fold increase
same,IL-1β mRNA expression,IL-1β [4]; 100 mg/kg,4.80 ± 0.90 fold increase
same,IL-6 mRNA expression,IL-6; 20 mg/kg,5.41 ± 1.01 fold increase
same,IL-6 mRNA expression,IL-6; 40 mg/kg,3.20 ± 1.20 fold increase
same,IL-6 mRNA expression,IL-6; 100 mg/kg,4.61 ± 1.01 fold increase
same,IL-12 mRNA expression,IL-12; 20 mg/kg,1.09 ± 0.13 fold increase
same,IL-12 mRNA expression,IL-12; 40 mg/kg,0.66 ± 0.18 fold increase
same,IL-12 mRNA expression,IL-12; 100 mg/kg,1.62 ± 0.30 fold increase
same,IL-17 mRNA expression,IL-17; 20 mg/kg,0.84 ± 0.09 fold increase
same,IL-17 mRNA expression,IL-17; 40 mg/kg,0.63 ± 0.27 fold increase
same,IL-17 mRNA expression,IL-17; 100 mg/kg,1.83 ± 0.48 fold increase
same,IL-23 mRNA expression,IL-23; 20 mg/kg,1.47 ± 0.24 fold increase
same,IL-23 mRNA expression,IL-23; 40 mg/kg,1.02 ± 0.21 fold increase
same,IL-23 mRNA expression,IL-23; 100 mg/kg,1.98 ± 0.30 fold increase
same,iNOS mRNA expression,iNOS; 20 mg/kg,10.37 ± 1.83 fold increase
same,iNOS mRNA expression,iNOS; 40 mg/kg,8.85 ± 3.36 fold increase
same,iNOS mRNA expression,iNOS; 100 mg/kg,9.15 ± 1.53 fold increase
same,CINC-1 mRNA expression,CINC-1; 20 mg/kg,3.59 ± 0.49 fold increase
same,CINC-1 mRNA expression,CINC-1; 40 mg/kg,2.93 ± 0.57 fold increase
same,CINC-1 mRNA expression,CINC-1; 100 mg/kg,3.50 ± 0.90 fold increase
same,MCP-1 mRNA expression,MCP-1; 20 mg/kg,3.03 ± 0.49 fold increase
same,MCP-1 mRNA expression,MCP-1; 40 mg/kg,1.80 ± 0.37 fold increase
same,MCP-1 mRNA expression,MCP-1; 100 mg/kg,2.13 ± 0.41 fold increase
same,ICAM-1 mRNA expression,ICAM-1; 20 mg/kg,1.64 ± 0.25 fold increase
same,ICAM-1 mRNA expression,ICAM-1; 40 mg/kg,0.95 ± 0.19 fold increase
same,ICAM-1 mRNA expression,ICAM-1; 100 mg/kg,2.77 ± 0.44 fold increase
same,MUC-2 mRNA expression,MUC-2; 20 mg/kg,0.50 ± 0.14 fold increase
same,MUC-2 mRNA expression,MUC-2; 40 mg/kg,0.53 ± 0.16 fold increase
same,MUC-2 mRNA expression,MUC-2; 100 mg/kg,0.56 ± 0.11 fold increase
same,TFF-3 mRNA expression,TFF-3; 20 mg/kg,0.84 ± 0.23 fold increase
same,TFF-3 mRNA expression,TFF-3; 40 mg/kg,0.67 ± 0.17 fold increase
same,TFF-3 mRNA expression,TFF-3; 100 mg/kg,0.99 ± 0.19 fold increase
